Test results reported in ChEMBL document CHEMBL1201862, “PubChem BioAssay data set” (2004).
Active and inactive are the calls of the source.

Tests used:
[1] = biological target: Mothers against decapentaplegic homolog 3 (Homo sapiens, UniProt P84022); assay: blockers of Smad3 complex formation in lysate – cell lysate, secondary confirmation, chemiluminescent ELISA, HEK293 lysate, dose response (AID 1058); type: functional
Streptococcus [2] = assay: Luminescence Microorganism-Based Dose Response Follow up to Identify Compounds Cytotoxic to Streptococcus. [Related pubchem assays: 1677 (Project Summary), 1915, 1914, 1902 (Retest at Dose), 1900 (Counter Screen), 1662 (Primary HTS)]; type: functional, organism-based
Streptococcus [3] = assay: GAS UMAA2166 growth inhibition – luminescence, BacTiterGlo, counter-screen for streptokinase expression inhibitor project, dose response (AID 1915); type: functional, organism-based;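 note: potency for reduction of bacterial viability or growth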
[4] = tested on: Streptococcus sp. 'group A'; assay: Streptococcus pyogenes SK(-)GAS viability under kanamycin – luminescence, BacTiterGlo, confirmation, counter-screen for streptokinase expression inhibitor project, dose response (AID 1900); type: functional, organism-based
Streptokinase A = biological target: T1, Streptokinase A (Streptococcus pyogenes serotype M1, UniProt P10520); assay: viability-normalized secreted streptokinase activity reduction – plasminogen activation absorbance, OD405, dose response (AID 1914); type: functional, Streptococcus pyogenes M1 GAS;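 note: secreted streptokinase activity via plasminogen activation per viability signal from cell pellet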
T1 sequence (P10520 whole entry): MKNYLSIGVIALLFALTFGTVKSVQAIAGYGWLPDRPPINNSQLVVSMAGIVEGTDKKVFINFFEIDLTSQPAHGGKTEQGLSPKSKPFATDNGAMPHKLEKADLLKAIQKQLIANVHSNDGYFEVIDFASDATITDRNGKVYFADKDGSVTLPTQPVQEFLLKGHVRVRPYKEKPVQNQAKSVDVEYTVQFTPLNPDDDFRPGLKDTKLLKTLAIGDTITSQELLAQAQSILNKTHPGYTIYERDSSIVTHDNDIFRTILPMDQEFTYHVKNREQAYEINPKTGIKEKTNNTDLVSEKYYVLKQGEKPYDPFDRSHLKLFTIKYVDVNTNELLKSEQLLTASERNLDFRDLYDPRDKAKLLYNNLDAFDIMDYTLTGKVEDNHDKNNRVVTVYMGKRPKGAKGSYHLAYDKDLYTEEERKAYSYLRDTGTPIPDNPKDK

Estrogen receptor = biological target: T2, Estrogen receptor (Homo sapiens, UniProt P03372); assay: blockers of SRC-3 recruitment to ERα – biochemical, ELISA, streptavidin-HRP readout, orthogonal assay, confirmation (AID 1079)
T2 sequence (P03372 whole entry): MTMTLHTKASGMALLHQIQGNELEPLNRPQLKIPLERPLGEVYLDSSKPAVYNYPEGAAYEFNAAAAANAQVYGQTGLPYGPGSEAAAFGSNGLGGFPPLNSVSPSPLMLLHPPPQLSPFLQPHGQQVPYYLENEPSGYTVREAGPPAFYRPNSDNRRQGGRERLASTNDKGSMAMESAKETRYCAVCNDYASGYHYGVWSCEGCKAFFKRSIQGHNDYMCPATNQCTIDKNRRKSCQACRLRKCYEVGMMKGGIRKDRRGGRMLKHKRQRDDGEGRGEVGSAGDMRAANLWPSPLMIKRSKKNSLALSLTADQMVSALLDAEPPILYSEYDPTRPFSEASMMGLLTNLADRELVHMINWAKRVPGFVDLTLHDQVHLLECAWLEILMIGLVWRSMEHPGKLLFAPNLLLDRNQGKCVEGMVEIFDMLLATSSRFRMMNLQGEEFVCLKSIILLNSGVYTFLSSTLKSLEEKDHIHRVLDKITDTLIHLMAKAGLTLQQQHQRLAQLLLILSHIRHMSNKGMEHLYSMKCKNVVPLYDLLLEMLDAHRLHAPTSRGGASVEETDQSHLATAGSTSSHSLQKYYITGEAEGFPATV

Protein RecA = biological target: T3, Protein RecA (Mycobacterium tuberculosis, UniProt P9WHJ3); assay: Fluorescence Cell-Free Homogeneous Dose Retest to Identify Inhibitors of RecA-Intein Splicing Activity. [Related pubchem assays (depositor defined):AID2097, AID2223, AID489010, AID492950]; type: functional
T3 sequence (P9WHJ3 whole entry): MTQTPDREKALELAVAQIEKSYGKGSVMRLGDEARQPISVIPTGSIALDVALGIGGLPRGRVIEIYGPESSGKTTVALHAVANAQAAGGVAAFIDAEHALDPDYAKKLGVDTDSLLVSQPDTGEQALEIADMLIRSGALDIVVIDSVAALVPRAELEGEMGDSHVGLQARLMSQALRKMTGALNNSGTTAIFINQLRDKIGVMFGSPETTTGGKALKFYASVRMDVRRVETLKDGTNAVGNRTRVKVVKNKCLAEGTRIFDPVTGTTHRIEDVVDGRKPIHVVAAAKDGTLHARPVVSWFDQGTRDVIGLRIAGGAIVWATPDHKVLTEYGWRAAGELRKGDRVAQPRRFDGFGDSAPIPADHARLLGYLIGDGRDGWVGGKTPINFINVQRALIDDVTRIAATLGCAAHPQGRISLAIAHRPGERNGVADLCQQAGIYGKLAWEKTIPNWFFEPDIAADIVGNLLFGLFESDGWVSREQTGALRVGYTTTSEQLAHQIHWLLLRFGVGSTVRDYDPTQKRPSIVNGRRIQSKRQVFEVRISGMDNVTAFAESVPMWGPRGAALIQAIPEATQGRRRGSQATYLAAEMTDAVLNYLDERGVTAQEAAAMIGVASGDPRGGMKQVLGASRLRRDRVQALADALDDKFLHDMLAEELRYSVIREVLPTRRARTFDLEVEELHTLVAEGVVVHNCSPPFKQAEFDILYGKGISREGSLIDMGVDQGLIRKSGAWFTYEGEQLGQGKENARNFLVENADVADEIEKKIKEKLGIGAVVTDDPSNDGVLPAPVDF

[5] = biological target: Sphingosine 1-phosphate receptor 4 (Homo sapiens, UniProt O95977); assay: Fluorescence dose response cell-based high throughput screening assay for antagonists of the Sphingosine 1-Phosphate Receptor 4 (S1P4). [Related pubchem assays: 1524 (Confirmation in triplicates.), 1510 (Primary screen.)]; type: functional
Sequence of Sphingosine 1-phosphate receptor 4 (O95977 whole entry): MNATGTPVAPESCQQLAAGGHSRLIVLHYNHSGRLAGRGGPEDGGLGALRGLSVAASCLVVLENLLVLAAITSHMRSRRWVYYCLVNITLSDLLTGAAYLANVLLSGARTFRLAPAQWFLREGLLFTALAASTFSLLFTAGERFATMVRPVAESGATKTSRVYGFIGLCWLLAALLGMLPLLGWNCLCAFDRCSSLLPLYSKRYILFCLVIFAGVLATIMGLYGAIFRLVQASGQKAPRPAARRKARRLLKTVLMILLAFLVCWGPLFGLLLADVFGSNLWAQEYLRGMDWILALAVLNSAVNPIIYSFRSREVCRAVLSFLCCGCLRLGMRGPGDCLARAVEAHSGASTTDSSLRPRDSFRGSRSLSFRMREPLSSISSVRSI

[6] = biological target: Sphingosine 1-phosphate receptor 1 (Homo sapiens, UniProt P21453); type: functional;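 note: Tango beta-arrestin reporter U2OS cells stimulated with S1P near its EC80; inhibitor potency meaning antagonism of receptor activation by the natural agonist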
Sequence of Sphingosine 1-phosphate receptor 1 (P21453 whole entry): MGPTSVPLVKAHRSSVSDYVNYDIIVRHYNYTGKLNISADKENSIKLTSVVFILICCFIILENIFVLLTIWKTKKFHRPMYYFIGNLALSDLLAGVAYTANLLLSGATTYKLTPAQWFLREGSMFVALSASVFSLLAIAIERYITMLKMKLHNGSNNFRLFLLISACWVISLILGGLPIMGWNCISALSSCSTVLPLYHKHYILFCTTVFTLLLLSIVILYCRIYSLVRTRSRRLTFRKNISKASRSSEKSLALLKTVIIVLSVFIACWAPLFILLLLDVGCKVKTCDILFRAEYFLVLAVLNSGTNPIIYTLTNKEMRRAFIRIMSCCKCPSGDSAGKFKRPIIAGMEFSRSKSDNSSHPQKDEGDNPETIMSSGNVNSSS

[7] = alpha-synuclein stem-loop luciferase translation blockers – H4 neuroglioma cells, luminescence, confirmation (AID 1988); type: functional, cell-based
[8] = Luminescence Cell-Based Dose Response HTS to Identify Inhibitors of 5'UTR Stem-Loop Driven Prion Protein mRNA Translation in H4 Neuroglioblastoma Cells. [Related pubchem assays: 1827 (Project Summary), 1813 (Primary HTS)]; type: functional
[9] = luciferase reporter signal suppression in cells – H4 neuroglioma cells, luminescence, dose response (AID 1990); type: functional, cell-based
CHO = CHO cell viability loss, potency – luminescence, cytotoxicity control for TLR9-MyD88 binding inhibitor project, dose response (AID 588339); type: functional, cell-based, hamster; settings: Cricetulus griseus;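 note: CHO cells stably coexpressing TLR9 and MyD88 fusions from primary screen; compound exposure lasted 48 hours before viability readout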
[10] = biological target: T4, High affinity choline transporter 1 (Homo sapiens, UniProt Q9GZV3); assay: human choline transporter blockers, potency – cell-based, 5-point CRC, membrane potential dye, dose response (AID 504840); type: functional
T4 sequence (Q9GZV3 whole entry): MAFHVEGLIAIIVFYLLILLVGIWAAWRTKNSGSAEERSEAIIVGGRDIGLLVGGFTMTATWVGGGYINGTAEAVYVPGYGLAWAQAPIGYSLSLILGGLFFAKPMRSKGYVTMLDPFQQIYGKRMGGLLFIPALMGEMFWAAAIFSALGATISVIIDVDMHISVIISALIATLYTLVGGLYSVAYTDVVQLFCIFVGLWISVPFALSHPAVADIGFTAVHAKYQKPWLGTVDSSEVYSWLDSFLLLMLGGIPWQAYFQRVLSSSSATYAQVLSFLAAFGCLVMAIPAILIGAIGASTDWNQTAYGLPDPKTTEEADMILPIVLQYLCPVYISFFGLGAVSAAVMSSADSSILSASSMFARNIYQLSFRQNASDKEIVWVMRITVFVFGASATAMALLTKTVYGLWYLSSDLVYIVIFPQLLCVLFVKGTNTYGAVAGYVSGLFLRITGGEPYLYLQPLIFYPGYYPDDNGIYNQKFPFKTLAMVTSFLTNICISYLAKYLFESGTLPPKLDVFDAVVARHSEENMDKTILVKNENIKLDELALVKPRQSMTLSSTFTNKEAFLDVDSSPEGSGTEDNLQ

[11] = reduction of Shn3 3'UTR-driven luciferase in osteoblasts – cell-based, Clone20 osteoblasts, firefly luciferase, cherry-picked, dose response (AID 624132); type: functional;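 note: firefly luciferase luminescence from reporter carrying the Shn3 3'UTR in osteoblasts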
[12] = biological target: T4, High affinity choline transporter 1; assay: human choline transporter blockers, potency – cell-based, 10-point CRC, membrane potential dye, dose response (AID 588401); type: functional;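 note: membrane potential dye fluorescence of choline-evoked depolarization via CHT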
[13] = biological target: T5, Heat shock factor protein 1 (Mus musculus, UniProt P38532); assay: decrease of HSF1-responsive luciferase luminescence – cell-based, NIH3T3, dose retest, confirmation (AID 2382); type: functional;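 note: NIH3T3 fibroblasts with HSF1-driven luciferase reporter stressed by proteasome inhibitor MG132; luminescence from HSF1-driven luciferase expression after 8 hours of MG132 stress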
T5 sequence (P38532 whole entry): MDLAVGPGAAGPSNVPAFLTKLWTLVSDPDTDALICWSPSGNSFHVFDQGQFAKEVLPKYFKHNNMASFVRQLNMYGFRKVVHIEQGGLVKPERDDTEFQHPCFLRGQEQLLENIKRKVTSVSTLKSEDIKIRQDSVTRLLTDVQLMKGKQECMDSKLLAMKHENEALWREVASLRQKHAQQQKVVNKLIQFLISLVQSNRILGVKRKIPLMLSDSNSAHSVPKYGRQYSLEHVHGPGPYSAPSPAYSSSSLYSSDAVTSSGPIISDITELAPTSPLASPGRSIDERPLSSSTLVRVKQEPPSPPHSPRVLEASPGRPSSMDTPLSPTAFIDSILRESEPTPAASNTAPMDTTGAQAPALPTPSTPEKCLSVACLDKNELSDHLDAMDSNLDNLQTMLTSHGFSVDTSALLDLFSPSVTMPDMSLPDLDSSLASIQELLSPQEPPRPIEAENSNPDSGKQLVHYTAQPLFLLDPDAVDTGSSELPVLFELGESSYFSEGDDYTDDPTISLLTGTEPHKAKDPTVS

[14] = non-specific 3'UTR reporter inhibition in Clone20-Shn3RL – cell-based, Renilla luciferase, cherry-picked, counter-screen for Shn3 inhibitor project, dose response (AID 624133); type: functional
[15] = biological target: Luciferin 4-monooxygenase (Photinus pyralis, UniProt P08659); assay: Counter Screen for Luciferase-based Assay Positives. [Related pubchem assays: 620, 618, 411 ]
Sequence of Luciferin 4-monooxygenase (P08659 whole entry): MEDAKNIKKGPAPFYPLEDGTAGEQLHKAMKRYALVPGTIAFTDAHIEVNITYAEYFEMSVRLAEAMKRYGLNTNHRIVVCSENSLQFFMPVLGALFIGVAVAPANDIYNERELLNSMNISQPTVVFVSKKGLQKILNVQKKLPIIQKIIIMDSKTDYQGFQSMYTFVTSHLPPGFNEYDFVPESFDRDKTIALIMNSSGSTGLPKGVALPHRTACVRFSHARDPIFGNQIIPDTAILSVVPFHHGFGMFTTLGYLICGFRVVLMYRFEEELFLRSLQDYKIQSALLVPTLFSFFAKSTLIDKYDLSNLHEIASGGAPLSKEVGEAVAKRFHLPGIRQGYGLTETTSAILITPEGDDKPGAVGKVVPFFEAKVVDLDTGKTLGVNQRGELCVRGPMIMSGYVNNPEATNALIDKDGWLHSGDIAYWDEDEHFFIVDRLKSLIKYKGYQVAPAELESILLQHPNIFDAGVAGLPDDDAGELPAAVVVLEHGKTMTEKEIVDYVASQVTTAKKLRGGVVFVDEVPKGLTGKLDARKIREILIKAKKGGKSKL

[16] = loss of viability in HepG2 cells – cell-based, CellTiter-Glo, cherry-picked, cytotoxicity control for Shn3 inhibitor project, dose response (AID 624134); type: functional
HT-1080 = assay: HT1080 cell viability loss – fluorescence readout (AID 620); type: functional, cell-based; settings: Homo sapiens
[17] = microbe, parasite or virus in culture; type: functional; settings: Mycobacterium tuberculosis
[18] = biological target: G2/mitotic-specific cyclin-B1 (Homo sapiens, UniProt P14635); assay: Counterscreen assay for inhibitors of Wee1 degradation: dose response cell-based assay to identify inhibitors of cyclin B degradation. [Related pubchem assays: 1410, 1321 ]; type: functional
Sequence of G2/mitotic-specific cyclin-B1 (P14635 whole entry): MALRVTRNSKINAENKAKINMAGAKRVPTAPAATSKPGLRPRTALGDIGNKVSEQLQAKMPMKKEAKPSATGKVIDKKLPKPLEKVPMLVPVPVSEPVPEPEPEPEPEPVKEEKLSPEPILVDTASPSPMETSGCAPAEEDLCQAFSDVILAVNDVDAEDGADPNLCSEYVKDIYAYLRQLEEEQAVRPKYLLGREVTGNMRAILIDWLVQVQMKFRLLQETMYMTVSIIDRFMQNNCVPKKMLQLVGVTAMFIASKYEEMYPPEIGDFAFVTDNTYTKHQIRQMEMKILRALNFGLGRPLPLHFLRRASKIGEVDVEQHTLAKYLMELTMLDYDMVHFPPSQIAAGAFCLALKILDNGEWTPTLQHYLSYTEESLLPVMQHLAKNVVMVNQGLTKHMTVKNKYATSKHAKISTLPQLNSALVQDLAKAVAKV

Wee1-like protein kinase = Wee1-like protein kinase (Homo sapiens, UniProt P30291); assay: Dose Response Cell-based Assay for Inhibitors of Wee1 Degradation. [Related pubchem assays: 1410, 1321 ]; type: functional
Sequence of Wee1-like protein kinase (P30291 whole entry): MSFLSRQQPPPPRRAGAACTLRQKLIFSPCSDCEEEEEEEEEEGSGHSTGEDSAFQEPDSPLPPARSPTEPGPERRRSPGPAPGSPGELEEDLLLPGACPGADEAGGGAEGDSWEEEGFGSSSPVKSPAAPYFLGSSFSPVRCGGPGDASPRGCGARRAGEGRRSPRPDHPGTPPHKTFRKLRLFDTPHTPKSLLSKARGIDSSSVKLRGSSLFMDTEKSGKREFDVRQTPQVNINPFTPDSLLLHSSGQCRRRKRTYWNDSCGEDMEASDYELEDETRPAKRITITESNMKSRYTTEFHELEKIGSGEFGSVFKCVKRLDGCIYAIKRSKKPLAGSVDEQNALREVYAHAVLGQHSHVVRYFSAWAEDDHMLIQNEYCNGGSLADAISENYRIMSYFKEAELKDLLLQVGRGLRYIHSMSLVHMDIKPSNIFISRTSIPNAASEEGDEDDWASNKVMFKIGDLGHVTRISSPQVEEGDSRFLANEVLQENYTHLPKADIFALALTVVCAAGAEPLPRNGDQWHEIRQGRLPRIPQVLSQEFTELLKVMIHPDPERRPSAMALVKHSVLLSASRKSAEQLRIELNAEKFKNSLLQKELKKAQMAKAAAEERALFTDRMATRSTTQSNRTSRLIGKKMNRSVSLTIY

Phospholipase A2 = Phospholipase A2 (Homo sapiens, UniProt P04054); type: functional;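 note: confirmatory dose-response counterscreen on phospholipase A2, testing hits that came from an ultra-high-throughput screen for ATG4B inhibitors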
Sequence of Phospholipase A2 (P04054 whole entry): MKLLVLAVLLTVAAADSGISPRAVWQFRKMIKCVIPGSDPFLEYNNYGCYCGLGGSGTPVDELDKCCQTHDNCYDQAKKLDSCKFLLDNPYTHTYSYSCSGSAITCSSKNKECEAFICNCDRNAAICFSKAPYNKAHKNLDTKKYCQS

[19] = A cytotoxicity screen of small molecule inhibitors of the PhoP region in Salmonella typhi identified in the primary screen. [Related pubchem assays: 1850, 1864, 1985 ]; type: functional
Cysteine protease ATG4B = Cysteine protease ATG4B (Homo sapiens, UniProt Q9Y4P1); type: functional;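 note: Fluorescence-based dose-response confirmation assay measuring inhibition of ATG4B activity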
Sequence of Cysteine protease ATG4B (Q9Y4P1 whole entry): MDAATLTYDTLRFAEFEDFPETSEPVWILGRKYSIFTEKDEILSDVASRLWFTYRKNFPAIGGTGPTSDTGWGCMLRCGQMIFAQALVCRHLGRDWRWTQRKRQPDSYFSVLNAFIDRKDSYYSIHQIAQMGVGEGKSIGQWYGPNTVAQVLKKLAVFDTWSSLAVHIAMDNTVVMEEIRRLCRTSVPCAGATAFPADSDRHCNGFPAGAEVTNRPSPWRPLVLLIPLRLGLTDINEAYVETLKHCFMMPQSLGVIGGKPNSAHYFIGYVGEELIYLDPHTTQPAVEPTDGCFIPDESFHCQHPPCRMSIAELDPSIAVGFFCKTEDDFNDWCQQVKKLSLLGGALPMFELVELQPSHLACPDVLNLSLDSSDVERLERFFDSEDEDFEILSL

cells [20] = type: functional, cell-based
[21] = rise of 2N DNA cells, HeLa – IC50, dose response (AID 1117349); type: functional, cell-based
cells [22] = type: functional, cell-based; remark: listed apart in the source
[23] = rise of 4N DNA cells, HeLa – IC50, dose response (AID 1117351); type: functional, cell-based
[24] = luciferase reporter signal reduction – luminescence, H4-C neuroglioblastoma cells, dose response (AID 2458); type: functional, cell-based;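 note: H4 neuroglioblastoma cells stably carrying a luciferase reporter gene fusion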
[25] = alpha-synuclein stem-loop translation blockers – luminescence, H4 neuroglioblastoma cells, dose confirmation, confirmation (AID 2454); type: functional, cell-based;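 note: H4 neuroglioblastoma cells carrying an alpha-synuclein 5'UTR luciferase reporter; potency for inhibition of the luciferase signal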

Sequence of Mothers against decapentaplegic homolog 3 (P84022 whole entry): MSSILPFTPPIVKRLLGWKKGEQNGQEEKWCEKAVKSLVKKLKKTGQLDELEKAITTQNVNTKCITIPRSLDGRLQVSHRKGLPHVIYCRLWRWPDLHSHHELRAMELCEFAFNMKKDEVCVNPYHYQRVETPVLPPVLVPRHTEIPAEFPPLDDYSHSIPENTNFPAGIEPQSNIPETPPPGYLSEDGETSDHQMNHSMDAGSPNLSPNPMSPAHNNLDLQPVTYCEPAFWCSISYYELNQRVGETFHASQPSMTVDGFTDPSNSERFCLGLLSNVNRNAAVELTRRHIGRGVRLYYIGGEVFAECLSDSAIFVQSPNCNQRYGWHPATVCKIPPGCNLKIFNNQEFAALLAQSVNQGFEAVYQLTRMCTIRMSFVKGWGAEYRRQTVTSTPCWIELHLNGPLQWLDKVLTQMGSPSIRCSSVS

Oc1ccccc1C(c1cc2c(cc1O)OCO2)N1CCOCC1 (stereo not given)
IC50 [1]: 6.96 µM (not active)

Cc1cc(C(=O)OC(C(=O)Nc2cccc(C(F)(F)F)c2)c2ccccc2)c(C)o1 (stereo not given)
EC50 (Streptococcus [2]): > 500 µM (not active) | EC50 (Streptococcus [3]): > 150 µM (not active) | EC50 [4]: 22.6 µM (active) | EC50 (Streptokinase A): 4.11 µM (active)

O=C(CCCCCn1c(=S)[nH]c2ccccc2c1=O)N1CCC(Nc2ccccc2)CC1
IC50 (Estrogen receptor): 0.18 µM (not active)

CN1/C(=C/C(=O)c2nc(S(C)(=O)=O)ncc2Cl)C(C)(C)c2ccccc21
EC50 (Protein RecA): 1.81 µM (active) | IC50 [5]: 1.31 µM (active) | IC50 [6]: 11.9 µM (not active) | EC50 [7]: 9.18 µM (active) | EC50 [8]: 10.1 µM (active) | EC50 [9]: > 120 µM (not active) | IC50 (CHO): 2.72 µM (active) | IC50 [10]: 4.81 µM (active) | AC50 [11]: 5.21 µM (active) | IC50 [12]: 3.81 µM (active) | EC50 [13]: 4.37 µM (active) | AC50 [14]: 8.57 µM (active) | EC50 [15]: 1.14 µM (active) | AC50 [16]: 12.2 µM (active) | EC50 (HT-1080): 17.8 µM (active) | CC50 [17]: 19.5 µM (active)

Cn1cccc1/C=C1\SC(Nc2ccccc2)=NC1=O
EC50 [18]: > 5.53 µM (active) | EC50 (Wee1-like protein kinase): > 49.7 µM (not active)

O=c1c2ccccc2nc(-c2ccoc2)n1CCc1ccccc1
IC50 (Phospholipase A2): 13.9 µM (active) | EC50 [19]: > 50 µM (active) | IC50 (Cysteine protease ATG4B): 14.3 µM (active)

COC(=O)Nc1nc2cc(C(=O)c3cccs3)ccc2[nH]1 [NOCODAZOLE]
EC50 [7]: < 0.1 µM (active) | EC50 (cells [20]): 0.203 µM (active) | EC50 [8]: < 0.1 µM (active) | IC50 [21]: 0.0174 µM (active) | IC50 (cells [22]): > 67.5 µM (inactive) | IC50 [23]: 0.0176 µM (active) | EC50 [24]: 0.195 µM (active) | EC50 [25]: 0.183 µM (active)
